Measured values published in patent publication US20100093763A1, “PHENYL SUBSTITUTED THIENO[2,3-d]PYRIMIDINES AND THEIR USE AS ADENOSINE A2a RECEPTOR ANTAGONISTS” (priority 2008, published 2010).
Where a name gives a salt, the structure may show the parent alone.

Experiments:
[1] = target: T1, human adenosine A1 receptor (Homo sapiens, UniProt P30542); assay: Adenosine A1 Receptor Functional Assay (A1GAL2); format: cell-based; settings: CHO-K1 cells overexpressing human A1 receptor, cAMP inducible beta-galactosidase reporter, 4 nM r-PIA/1 uM Forskolin agonist challenge
T1 construct: expressed in transfected cells; host or cells: CHO-K1 cells with cAMP inducible beta-galactosidase reporter gene
T1 sequence (P30542 1-326): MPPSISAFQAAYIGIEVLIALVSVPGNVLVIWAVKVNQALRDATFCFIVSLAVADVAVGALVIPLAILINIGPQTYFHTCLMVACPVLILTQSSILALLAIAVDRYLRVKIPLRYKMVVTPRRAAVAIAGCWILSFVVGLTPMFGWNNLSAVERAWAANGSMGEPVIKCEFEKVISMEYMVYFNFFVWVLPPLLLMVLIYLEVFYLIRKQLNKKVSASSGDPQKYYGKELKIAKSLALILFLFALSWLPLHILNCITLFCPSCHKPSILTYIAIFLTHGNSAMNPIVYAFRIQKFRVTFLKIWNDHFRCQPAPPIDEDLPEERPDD
Description: Adenosine A1 Receptor Functional Assay (A1GAL2)
To initiate the functional assay, cryopreserved CHO—K1 cells overexpressing the human adenosine A1 receptor and containing a cAMP inducible beta-galactosidase reporter gene were thawed, centrifuged, DMSO containing media removed, and then seeded with fresh culture media into clear 384-well tissue culture treated plates (BD #353961) at a concentration of 10K cells/well. Prior to assay, these plates were cultured for two days at 37° C., 5% CO2, 90% Rh. On the day of the functional assay, culture media was removed and replaced with 45 uL assay medium (Hams/F-12 Modified (Mediatech #10-080CV) supplemented w/0.1% BSA). Test compounds were diluted and 11 point curves created at a 1000× concentration in 100% DMSO. Immediately after addition of assay media to the cell plates, 50 nL of the appropriate test compound antagonist or agonist control curves were added to cell plates using a Cartesian Hummingbird. Compound curves were allowed to incubate at room temperature on cell plates for approximately 15 minutes before addition of a 4 nM r-PIA (Sigma P4532)/1 uM Forskolin (Sigma F3917) agonist challenge (5 uL volume). A control curve of r-PIA in 1 uM Forskolin, a DMSO/Media control, and a single dose of Forskolin were also included on each plate. After additions, cell plates were allowed to incubate at 37° C., 5% CO2, 90% Rh for 5.5-6 hours. After incubation, media was removed, and cell plates were washed lx 5OuL with DPBS w/o Ca & Mg (Mediatech 21-031-CV).
Into dry wells, 20 uL of 1× Reporter Lysis Buffer (Promega E3971 (diluted in dH2O from 5× stock)) was added to each well and plates frozen at −20° C. overnight. For β-galactosidase enzyme calorimetric assay, plates were thawed out at room temperature and 20 μL 2× assay buffer (Promega) was added to each well. Color was allowed to develop at 37° C., 5% CO2, 90% Rh for 1-1.5 h or until reasonable signal appeared. The calorimetric reaction was stopped with the addition of 60 μL/well 1M sodium carbonate. Plates were counted at 405 nm on a SpectraMax Microplate Reader (Molecular Devices). Data was analyzed in Microsoft Excel and IC/EC50 curves were fit using a standardized macro.

[2] = target: T2, human adenosine A2a receptor (Homo sapiens, UniProt P29274); assay: Adenosine A2a Receptor Functional Assay (A2AGAL2); format: cell-based; settings: CHO-K1 cells overexpressing human A2a receptor, cAMP inducible beta-galactosidase reporter, 15 nM NECA agonist challenge
T2 construct: expressed in transfected cells; host or cells: CHO-K1 cells with cAMP inducible beta-galactosidase reporter gene
Description: Adenosine A2a Receptor Functional Assay (A2AGAL2)
To initiate the functional assay, cryopreserved CHO—K1 cells overexpressing the human adenosine A2a receptor and containing a cAMP inducible beta-galactosidase reporter gene were thawed, centrifuged, DMSO containing media removed, and then seeded with fresh culture media into clear 384-well tissue culture treated plates (BD #353961) at a concentration of 10K cells/well. Prior to assay, these plates were cultured for two days at 37° C., 5% CO2, 90% Rh. On the day of the functional assay, culture media was removed and replaced with 45 uL assay medium (Hams/F-12 Modified (Mediatech #10-080CV) supplemented w/0.1% BSA). Test compounds were diluted and 11 point curves created at a 1000× concentration in 100% DMSO. Immediately after addition of assay media to the cell plates, 50 nL of the appropriate test compound antagonist or agonist control curves were added to cell plates using a Cartesian Hummingbird. Compound curves were allowed to incubate at room temperature on cell plates for approximately 15 minutes before addition of a 15 nM NECA (Sigma E2387) agonist challenge (5 uL volume). A control curve of NECA, a DMSO/Media control, and a single dose of Forskolin (Sigma F3917) were also included on each plate. After additions, cell plates were allowed to incubate at 37° C., 5% CO2, 90% Rh for 5.5-6 hours. After incubation, media was removed, and cell plates were washed 1× 50 uL with DPBS w/o Ca & Mg (Mediatech 21-031-CV). Into dry wells, 20 uL of 1× Reporter Lysis Buffer (Promega E3971 (diluted in dH2O from 5× stock)) was added to each well and plates frozen at −20° C. overnight. For β-galactosidase enzyme calorimetric assay, plates were thawed out at room temperature and 20 μL 2× assay buffer (Promega) was added to each well. Color was allowed to develop at 37° C., 5% CO2, 90% Rh for 1-1.5 h or until reasonable signal appeared. The calorimetric reaction was stopped with the addition of 60 μL/well 1M sodium carbonate. Plates were counted at 405 nm on a SpectraMax Microplate Reader (Molecular Devices). Data was analyzed in Microsoft Excel and IC/EC50 curves were fit using a standardized macro.

[3] = target: T3, human A2a adenosine receptor (Homo sapiens, UniProt P29274); assay: Ligand Binding Assay for Adenosine A2a Receptor (A2A-B); settings: plasma membrane of HEK293 cells containing human A2a receptor, radioligand [3H]CGS21680
T3 construct: purchased PerkinElmer RB-HA2a; host or cells: HEK293 cells (plasma membrane preparation)
Description: Ligand Binding Assay for Adenosine A2a Receptor
Ligand binding assay of adenosine A2a receptor was performed using plasma membrane of HEK293 cells containing human A2a adenosine receptor (PerkinElmer, RB-HA2a) and radioligand [^3H]CGS21680 (PerkinElmer, NET1021). Assay was set up in 96-well polypropylene plate in total volume of 200 μL by sequentially adding 20 μL1:20 diluted membrane, 130 μL assay buffer (50 mM Tris•HCl, pH7.4 10 mM MgCl2, 1 mM EDTA) containing [^3H] CGS21680, 50 μL diluted compound (4×) or vehicle control in assay buffer. Nonspecific binding was determined by […] NECA. Reaction was carried out at room temperature for 2 hours before filtering through 96-well GF/C filter plate pre-soaked in 50 mM Tris•HCl, pH7.4 containing 0.3% polyethylenimine. Plates were then washed 5 times with cold 50 mM Tris•HCl, pH7.4, dried and sealed at the bottom. Microscintillation fluid 30 μL was added to each well and the top sealed. Plates were counted on Packard Topcount for [^3H]. Data was analyzed in Microsoft Excel and GraphPad Prism programs. (Varani, K.; Gessi, S.; Dalpiaz, A.; Borea, P. A. British Journal of Pharmacology, 1996, 117, 1693)

T3 sequence (P29274 whole entry): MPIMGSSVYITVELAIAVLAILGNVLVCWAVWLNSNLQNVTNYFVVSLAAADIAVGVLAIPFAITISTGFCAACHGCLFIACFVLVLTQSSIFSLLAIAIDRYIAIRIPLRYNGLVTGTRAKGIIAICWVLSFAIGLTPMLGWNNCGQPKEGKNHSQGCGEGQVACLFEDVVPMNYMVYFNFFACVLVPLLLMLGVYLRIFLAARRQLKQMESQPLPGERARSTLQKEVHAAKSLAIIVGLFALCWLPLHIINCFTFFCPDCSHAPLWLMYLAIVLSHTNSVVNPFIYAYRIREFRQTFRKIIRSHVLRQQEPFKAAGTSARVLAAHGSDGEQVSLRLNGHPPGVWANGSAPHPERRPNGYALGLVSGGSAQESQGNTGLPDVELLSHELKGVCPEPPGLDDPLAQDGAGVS
T2 sequence (P29274 whole entry): as above

Row | Structure (SMILES) | Ki [1] [µM] | Ki [2] [µM] | Ki [3] [µM]
1 | CC(c1ccccc1)c1cc2c(N)nc(-c3cccc(C#N)c3)nc2s1 (racemic) [Example 10, (±)-3-[4-Amino-6-(1-phenyl-ethyl)-thieno[2,3-d]pyrimidin-2-yl]-benzonitrile] | 1.77 | 0.34 | –
2 | N#Cc1cccc(-c2nc(N)c3cc(Cc4ccccc4)sc3n2)c1 [Example 1, 3-(4-Amino-6-benzyl-thieno[2,3-d]pyrimidin-2-yl)-benzonitrile] | 0.205 | 0.0106 | 0.0168
3 | N#Cc1cccc(-c2nc(N)c3cc(CCc4ccccc4)sc3n2)c1 [Example 2, 3-(4-Amino-6-phenethyl-thieno[2,3-d]pyrimidin-2-yl)-benzonitrile] | 4.64 | 0.802 | –
4 | C=C(c1ccccc1)c1cc2c(N)nc(-c3cccc(C#N)c3)nc2s1 [Example 5, 3-[4-Amino-6-(1-phenyl-vinyl)-thieno[2,3-d]pyrimidin-2-yl]-benzonitrile] | > 1.04 | 0.0634 | –
5 | N#Cc1cccc(-c2nc(N)c3cc(C4(c5ccccc5)CC4)sc3n2)c1 [Example 6, 3-[4-Amino-6-(1-phenyl-cyclopropyl)-thieno[2,3-d]pyrimidin-2-yl]-benzonitrile] | > 0.61 | 0.222 | –
6 | COc1ccccc1Cc1cc2c(N)nc(-c3cccc(C#N)c3)nc2s1 [Example 9, 3-[4-Amino-6-(2-methoxy-benzyl)-thieno[2,3-d]pyrimidin-2-yl]-benzonitrile] | 0.129 | 0.00615 | 0.0125
7 | COc1ccccc1-c1nc(N)c2cc(Cc3ccccc3)sc2n1 [Example 11, 6-Benzyl-2-(2-methoxy-phenyl)-thieno[2,3-d]pyrimidin-4-ylamine] | 0.374 | 0.217 | –
8 | Nc1nc(-c2cccc(C(F)(F)F)c2)nc2sc(Cc3ccccc3)cc12 [Example 12, 6-Benzyl-2-(3-trifluoromethyl-phenyl)-thieno[2,3-d]pyrimidin-4-ylamine] | > 1.04 | 1.02 | –
9 | COc1cccc(-c2nc(N)c3cc(Cc4ccccc4)sc3n2)c1 [Example 13, 6-Benzyl-2-(3-methoxy-phenyl)-thieno[2,3-d]pyrimidin-4-ylamine hydrochloride] | 0.266 | 0.118 | –

More lines, now with the values ahead:

Row | Ki [1] [µM] | Ki [2] [µM] | Ki [3] [µM] | Structure (SMILES)
10 | 0.123 | 0.0422 | – | Nc1nc(-c2cccc(F)c2)nc2sc(Cc3ccccc3)cc12 [Example 14, 6-Benzyl-2-(3-fluoro-phenyl)-thieno[2,3-d]pyrimidin-4-ylamine]
11 | 1.01 | 0.0391 | – | N#Cc1cccc(-c2nc(N)c3cc(Cc4ccccc4OC(F)(F)F)sc3n2)c1 [Example 15, 3-[4-Amino-6-(2-trifluoromethoxy-benzyl)-thieno[2,3-d]pyrimidin-2-yl]-benzonitrile]
12 | 1.04 | 0.023 | – | COc1ccccc1C(=O)c1cc2c(N)nc(-c3cccc(C#N)c3)nc2s1 [Example 17, 3-[4-Amino-6-(2-methoxy-benzoyl)-thieno[2,3-d]pyrimidin-2-yl]-benzonitrile]
13 | 0.865 | 0.175 | – | COc1ccccc1C(=O)c1cc2c(N)nc(-c3cccc(OC(F)(F)F)c3)nc2s1 [Example 18, [4-Amino-2-(3-trifluoromethoxy-phenyl)-thieno[2,3-d]pyrimidin-6-yl]-(2-methoxy-phenyl)-methanone]
14 | 0.418 | 0.0624 | 0.0393 | COc1ccccc1Cc1cc2c(N)nc(-c3cccc(F)c3)nc2s1 [Example 19, 2-(3-Fluoro-phenyl)-6-(2-methoxy-benzyl)-thieno[2,3-d]pyrimidin-4-ylamine]
15 | 0.564 | 0.188 | – | Nc1nc(-c2cccc(F)c2)nc2sc(Cc3cc(F)cc(F)c3)cc12 [Example 20, 6-(3,5-Difluoro-benzyl)-2-(3-fluoro-phenyl)-thieno[2,3-d]pyrimidin-4-ylamine]
16 | 0.162 | 0.0801 | – | COc1ccccc1C(=O)c1cc2c(N)nc(-c3cccc(F)c3)nc2s1 [Example 21, [4-Amino-2-(3-fluoro-phenyl)-thieno[2,3-d]pyrimidin-6-yl]-(2-methoxy-phenyl)-methanone]
